# Data from US11767305B2, “Advantageous benzofuran compositions for mental disorders or enhancement” (Tactogen Inc, priority 2020, dated 2023).
# Experiments:
# MAO-A = MAO-A (Homo sapiens (Human), UniProt P21397); assay: MAO-A inhibition assay (kynuramine); type: biochemical
# Protocol: MAO-A and test compounds were preincubated at 37° C. for 15 minutes before substrate addition. Test compounds were assayed at 10 concentrations with the highest concentration either 30 or 10 μM and subsequent concentrations using a 0.33 dilution factor. The reaction was initiated by addition of kynuramine and incubated at 37° C. for 30 minutes. The reaction was terminated by addition of NaOH. The amount of 4-hydroquioline formed was determined through spectrofluorimetric readout with the emission detection at 380 nm and excitation wavelength 310 nm.
# [1] = biological target: T1, serotonin (5-HT) transporter (SERT) (Rattus norvegicus (Rat), UniProt P31652); assay: Rat synaptosome SERT [3H]5-HT uptake inhibition assay; conditions: Inhibition of [3H]5-HT Uptake at SERT IC50 (nM), 5 nM [3H]5-HT
# adrenergic β2 receptor = adrenergic β2 receptor (Homo sapiens (Human), UniProt P07550); assay: Adrenergic β2 receptor cAMP secondary messenger antagonist assay; type: cell-based
# Chain of adrenergic β2 receptor (P07550 whole entry, looked up, the tested form may be a part): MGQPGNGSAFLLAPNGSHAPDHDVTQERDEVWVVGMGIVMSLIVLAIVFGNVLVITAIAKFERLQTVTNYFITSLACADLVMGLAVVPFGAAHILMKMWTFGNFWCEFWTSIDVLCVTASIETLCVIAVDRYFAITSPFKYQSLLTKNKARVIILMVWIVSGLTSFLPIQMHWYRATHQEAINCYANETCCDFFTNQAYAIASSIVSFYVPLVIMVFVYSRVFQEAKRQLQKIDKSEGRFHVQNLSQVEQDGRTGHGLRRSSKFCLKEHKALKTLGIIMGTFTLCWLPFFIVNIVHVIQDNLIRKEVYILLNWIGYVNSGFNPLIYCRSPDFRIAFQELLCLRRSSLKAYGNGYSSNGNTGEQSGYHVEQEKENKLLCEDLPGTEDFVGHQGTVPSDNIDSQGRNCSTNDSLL
# From the text: This assay used a panel of CHO-K1 cell lines stably expressing non-tagged GPCRs that endogenously signal through cAMP. Hit Hunter® cAMP assays monitored the activation of a GPCR via Gi and Gs secondary messenger signaling in a homogenous, non-imaging assay format using DiscoverX Enzyme Fragment Complementation (EFC) with β-galactosidase as the functional endpoint.
# The enzyme was split into two complementary portions: Enzyme Acceptor (EA) and Enzyme Donor (ED). In the assay, exogenously introduced ED fused to cAMP (ED-cAMP) competed with endogenously generated cAMP for binding to an anti-cAMP-specific antibody. […] Active enzyme could then convert a chemiluminescent substrate, generating an output signal detectable on a standard microplate reader.
# Cell lines were expanded from freezer stocks according to standard procedures. Cells were seeded in a total volume of 20 μL into white walled, 384-well microplates and incubated at 37° C. for the appropriate time prior to testing. cAMP modulation was determined using the DiscoverX HitHunter cAMP XS+ assay. […]
# Compound activity was analyzed using CBIS data analysis suite (ChemInnovation, CA). For Gs antagonist mode assays, percentage inhibition was calculated as 100%×(1−(mean RLU of test sample−mean RLU of vehicle control)/(mean RLU of EC80 control−mean RLU of vehicle control)).
# [2] = biological target: human 5-HT transporter (hSERT) (Homo sapiens (Human), UniProt P31645); assay: Human serotonin transporter  assay ([3H]imipramine radioligand, CHO cells); type: binding; conditions: SERT IC50 (μM), 2 nM [3H]imipramine
# Protocol: Benzofuran derivatives were evaluated for inhibiting the human 5-HT transporter (hSERT) as expressed in CHO cells using an antagonist radioligand assay (Tatsumi, M. et al. (1999), Eur. J Pharmacol., 368: 277-283). […] Test compounds were assayed in three trials at […], and 0.94868 μM.
# 5-HT2A receptors = 5-HT2A receptors (Homo sapiens (Human), UniProt P28223); assay: 5-HT2A agonist and antagonist calcium assay (Calcium NWPLUS, FLIPR); type: cell-based
# Protocol: The DiscoveRx Calcium NWPLUS Assay was used for detection of changes in intracellular calcium as signalled by an increase of dye fluorescence in cells expressing 5-HT2A receptors. Signal was measured on a fluorescent plate reader equipped with fluidic handling capable of detecting rapid changes in fluorescence upon compound stimulation.
# To conduct the assay, cell lines were expanded from freezer stocks according to standard procedures. Cells (10,000 cells/well) were seeded in a total volume of 50 μL (200 cells/μL) into black-walled, clear-bottom, Poly-D-lysine coated 384-well microplates and incubated at 37-C for the appropriate time prior to testing. DMSO concentration for all readouts was ≤0.2%.
# Assays were performed in 1×DyeLoading Buffer consisting of 1×Dye (DiscoverX, Calcium No WashPLUS kit, Catalog No. 90-0091), 1×Additive A and 2.5 mM Probenecid in HBSS/20 mM Hepes. Probenecid was prepared fresh. Cells were loaded with dye prior to testing. Media was aspirated from cells and replaced with 25 μL Dye Loading Buffer. Test compounds were assayed at 10 concentrations with the highest concentration either 30 or 10 μM and subsequent concentrations using a 0.33 dilution factor. Cells with testing sample were incubated for 45 minutes at 37° C. and then 20 minutes at room temperature. After dye loading, cells were removed from the incubator and 25 μL of 2×compound in HBSS/20 mM Hepes was added using a FLIPR Tetra (MDS). […]
# Compound agonist activity was measured on a FLIPR Tetra. Calcium mobilization was monitored for 2 minutes with a 5 second baseline read. FLIPR read-Area under the curve was calculated for the two minute read. Compound activity was analyzed using CBIS data analysis suite (ChemInnovation, CA). Percentage activity was calculated as 100%×(mean RFU of test sample−mean RFU of vehicle control)/(mean MAX RFU control ligand −mean RFU of vehicle control). For antagonist mode assays, percentage inhibition was calculated as 100%×(1−(mean RFU of test sample−mean RFU of vehicle control)/(mean RFU of EC80 control−mean RFU of vehicle control)).
# [3] = biological target: T1, serotonin (5-HT) transporter (SERT); assay: Rat synaptosome SERT [3H]5-HT release assay; conditions: [3H]5-HT release via SERT EC50 (nM), 5 nM [3H]5-HT
# 5-HT2B = 5-HT2B (Homo sapiens (Human), UniProt P41595); assay: 5-HT2B agonist and antagonist calcium assay (Calcium NWPLUS, FLIPR); type: cell-based
# Chain of 5-HT2B (P41595 whole entry, looked up, species assumed): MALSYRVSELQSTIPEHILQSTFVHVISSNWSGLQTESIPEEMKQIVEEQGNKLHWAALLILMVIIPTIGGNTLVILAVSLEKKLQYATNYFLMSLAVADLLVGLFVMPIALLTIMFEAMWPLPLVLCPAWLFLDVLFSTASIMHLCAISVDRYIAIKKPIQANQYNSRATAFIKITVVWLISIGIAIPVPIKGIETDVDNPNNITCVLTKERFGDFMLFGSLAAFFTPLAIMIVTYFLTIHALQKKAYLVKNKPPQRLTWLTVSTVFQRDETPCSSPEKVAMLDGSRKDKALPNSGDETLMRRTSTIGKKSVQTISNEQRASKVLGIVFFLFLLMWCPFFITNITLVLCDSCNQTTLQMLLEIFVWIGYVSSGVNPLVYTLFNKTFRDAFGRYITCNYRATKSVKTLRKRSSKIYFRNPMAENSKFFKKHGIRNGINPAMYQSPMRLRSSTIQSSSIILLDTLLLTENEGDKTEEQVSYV
# Chain of MAO-A (P21397 whole entry, looked up, species assumed): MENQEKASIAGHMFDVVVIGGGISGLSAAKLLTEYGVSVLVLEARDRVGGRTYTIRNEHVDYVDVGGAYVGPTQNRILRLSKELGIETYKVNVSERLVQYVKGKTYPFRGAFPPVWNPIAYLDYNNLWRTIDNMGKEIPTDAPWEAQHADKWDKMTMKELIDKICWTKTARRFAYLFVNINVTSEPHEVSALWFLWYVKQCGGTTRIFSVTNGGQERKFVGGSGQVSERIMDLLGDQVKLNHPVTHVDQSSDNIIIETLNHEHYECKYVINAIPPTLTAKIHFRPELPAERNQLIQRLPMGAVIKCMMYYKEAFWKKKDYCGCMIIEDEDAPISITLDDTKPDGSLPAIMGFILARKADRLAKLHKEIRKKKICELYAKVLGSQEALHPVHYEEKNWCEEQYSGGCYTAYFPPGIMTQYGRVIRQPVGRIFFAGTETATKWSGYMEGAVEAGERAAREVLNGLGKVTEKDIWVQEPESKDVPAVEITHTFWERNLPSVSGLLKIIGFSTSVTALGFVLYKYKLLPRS
smiles,measurement,setting,value
"CN[C@H](C)Cc1ccc2ccoc2c1 [Compound R-6-MAPB, (R)-1-(benzofuran-6-yl)-N-methylpropan-2-amine]",IC50,MAO-A,2.12 µM
same,IC50,[1],623 ± 31.2 nM
same,IC50,adrenergic β2 receptor,4.06 µM
same,IC50,[2],24 µM
same,EC50,5-HT2A receptors,4.62 µM
same,EC50,[3],112 ± 17.5 nM
same,IC50,5-HT2B,0.4 µM
